Measured values reported in patent publication US10954214B2 (Janssen Pharmaceutica NV, priority 2016, dated 2021).
pIC50: −log10 of the molar value.

Key:
[1] = test system: IL6 secretion by OCI-LY3 ABC-DLBCL cells; experiment: Human IL6 Mesoscale assay (OCI-LY3); assay type: cell-based; conditions: Homo sapiens, 24 h
Description: (§1) NFKB signaling regulates the secretion of multiple cytokines, including IL6 and IL10. Secretion of the cytokines IL6 and IL10 by TMD8 or OCI-LY3 ABC-DLBCL cells was measured using a mesoscale assay. Inhibition of NFKB signaling by MALT1 or BTK inhibitors results in a decrease of IL6/10 secretion.
(§2) TMD8 or OCI-LY3 cells were propagated in RPMI-1640 (Sigma Aldrich) supplemented with 10% fetal bovine serum (HyClone), 1 mM sodium pyruvate (Invitrogen), 2 mM L-glutamine (Sigma Aldrich) and 1% PenStrep (Sigma Aldrich). Cell passage number should not exceed 30. Cells should be kept between 0.5-2.5 million cells per mL during culturing and cells should be supplemented every 2-3 days with fresh 50 μM beta-mercaptoenthanol. No beta-mercaptoethanol was used during the mesoscale assay.
(§3) For the Mesoscale assay, 100,000 TMD8 or OCI-LY3 cells were seeded per well into black-colored 96-well plates with clear bottom (Corning #3904) and test compounds were added in 9 dilution steps (1:2) ranging from 15 μM to 58.6 nM (final DMSO concentration 0.3%). DMSO control wells were used to determine the maximum signal (High Control (HC)). Treatment with the BTK inhibitor RN486 in a dose range from 30 nM to 131 pM (9 dilutions of 1:2) served as a positive control for NFKB pathway inhibition and was used to determine the maximum inhibition (Low Control (LC)). Compounds and cells were incubated for 24 h at 37° C. and 5% CO2 (assay volume is 150 μL). After 24 h of incubation 50 μL of the supernatant was transferred to a MSD plate (V-Plex Proinflammation Panel 1 (human) kit, Mesoscale (MSD)) and incubated for 2 h with vigorous shaking (600 rpm) at room temperature. Following incubation, plates were washed 3× with PBS+0.05% Tween-20 and 25 μL detection antibody solution (IL6 & IL10 antibodies in diluent 3 (MSD)) was added per well followed by 2 h of incubation with vigorous shaking (600 rpm) at room temperature. After 3× washes with PBS+0.05% Tween-20, plates were incubated with 150 μL 2× Read Buffer T and read on SECTOR imager.

[2] = test system: IL10 secretion by OCI-LY3 ABC-DLBCL cells; experiment: Human IL10 Mesoscale assay (OCI-LY3); assay type: cell-based; conditions: Homo sapiens, 24 h
Description: as §1, §2, §3

[3] = molecular target: full-length MALT1 protein (Strep-MALT1(1-824)-His) (Homo sapiens (Human), UniProt Q9UDY8); experiment: MALT1 Biochemical Protease Assay (Ac-LRSR-AMC substrate); conditions: 10 nM FL MALT1, 200 μM Ac-LRSR-AMC, 4 h at RT; read-out: MALT1_Biochemical activity (Ac-LRSR-amc) IC50
full-length MALT1 protein (Strep-MALT1(1-824)-His), sequence (Q9UDY8 whole entry): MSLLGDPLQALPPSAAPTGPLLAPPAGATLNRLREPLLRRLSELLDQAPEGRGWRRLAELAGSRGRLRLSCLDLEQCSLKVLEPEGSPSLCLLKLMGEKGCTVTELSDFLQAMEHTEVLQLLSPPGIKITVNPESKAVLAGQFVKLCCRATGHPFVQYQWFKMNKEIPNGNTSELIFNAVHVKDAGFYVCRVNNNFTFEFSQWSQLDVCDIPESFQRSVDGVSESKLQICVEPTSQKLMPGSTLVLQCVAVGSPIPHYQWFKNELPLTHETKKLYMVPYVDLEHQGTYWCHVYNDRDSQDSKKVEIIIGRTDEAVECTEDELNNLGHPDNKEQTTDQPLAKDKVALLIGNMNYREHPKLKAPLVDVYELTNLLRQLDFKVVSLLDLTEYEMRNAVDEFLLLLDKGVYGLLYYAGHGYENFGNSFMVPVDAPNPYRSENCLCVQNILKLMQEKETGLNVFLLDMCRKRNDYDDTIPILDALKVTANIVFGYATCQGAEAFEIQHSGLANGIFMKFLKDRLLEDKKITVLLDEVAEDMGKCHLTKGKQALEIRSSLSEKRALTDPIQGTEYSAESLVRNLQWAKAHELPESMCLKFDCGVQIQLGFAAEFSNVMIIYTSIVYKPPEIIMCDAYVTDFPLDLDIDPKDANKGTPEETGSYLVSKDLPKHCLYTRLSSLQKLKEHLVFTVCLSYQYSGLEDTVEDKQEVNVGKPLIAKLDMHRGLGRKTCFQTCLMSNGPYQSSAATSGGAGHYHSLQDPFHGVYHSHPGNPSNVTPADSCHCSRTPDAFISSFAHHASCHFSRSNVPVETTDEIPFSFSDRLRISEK
Outline: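 Full-length MALT1 pre-incubated with compounds (30 μM to 0.5 nM, 11 threefold steps) for 50 min at RT. After Ac-LRSR-AMC was added, the reaction ran 4 h at RT and AMC fluorescence was read. IC50 and Hill slope from curve fitting against no-enzyme and no-compound controls.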

[4] = test system: IL6 secretion by TMD8 ABC-DLBCL cells; experiment: Human IL6 Mesoscale assay (TMD-8); assay type: cell-based; conditions: TMD-8 cells, 24 h
Outline: (§4)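 100,000 cells/well treated with compound in 9 twofold steps from 15 μM to 58.6 nM (0.3% DMSO) for 24 h at 37° C; supernatant cytokine measured by MSD electrochemiluminescence sandwich immunoassay. DMSO wells set maximum signal, BTK inhibitor RN486 (30 nM to 131 pM) set maximum inhibition.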

[5] = test system: IL10 secretion by TMD8 ABC-DLBCL cells; experiment: Human IL10 Mesoscale assay (TMD-8); assay type: cell-based; conditions: TMD-8 cells, 24 h
Outline: as §4

Molecule	pIC50 [1]	pIC50 [2]	pIC50 [3]	pIC50 ([4]; Homo sapiens, TMD8)	pIC50 ([5]; Homo sapiens, TMD8)	pIC50 [4]	pIC50 [5]
O=C(Nc1cnc(-n2nccn2)c(Cl)c1)c1cnn(-c2cnc([C@H]3CCCO3)c3ccccc23)c1C(F)(F)F (single isomer, unassigned) [Cpd 436, (*R)—N-(5-chloro-6-(2H-1,2,3-triazol-2-yl)pyridin-3-yl)-1-(1-(tetrahydrofuran-2-yl)isoquinolin-4-yl)-5-(trifluoromethyl)-1H-pyrazole-4-carboxamide]	6.85	6.96	5.88	–	–	–	–
O=C(Nc1cnc(-n2nccn2)c(Cl)c1)c1cnn(-c2cccc3nc([C@@H]4CCCO4)ccc23)c1C(F)(F)F (single isomer, unassigned) [Cpd 441, (*S)—N-(5-chloro-6-(2H-1,2,3-triazol-2-yl)pyridin-3-yl)-1-(2-(tetrahydrofuran-2-yl)quinolin-5-yl)-5-(trifluoromethyl)-1H-pyrazole-4-carboxamide]	5.95	6.05	6.01	–	–	–	–
C[C@@H](O)c1ncc(-n2ncc(C(=O)Nc3cnc(-n4nccn4)c(Cl)c3)c2C(F)(F)F)c2ccccc12 (single isomer, unassigned) [Cpd 442, (*R)—N-(5-chloro-6-(2H-1,2,3-triazol-2-yl)pyridin-3-yl)-1-(1-(1-hydroxyethyl)isoquinolin-4-yl)-5-(trifluoromethyl)-1H-pyrazole-4-carboxamide]	6.79	6.95	7.21	–	–	–	–
C[C@H](O)c1nccc2c(-n3ncc(C(=O)Nc4cnc(-n5nccn5)c(Cl)c4)c3C(F)(F)F)cccc12 (single isomer, unassigned) [Cpd 445, (*S)—N-(5-chloro-6-(2H-1,2,3-triazol-2-yl)pyridin-3-yl)-1-(1-(1-hydroxyethyl)isoquinolin-5-yl)-5-(trifluoromethyl)-1H-pyrazole-4-carboxamide]	6.73	7.03	7.10	–	–	–	–
O=C(Nc1cnc(-n2nc3cccnc3n2)c(Cl)c1)c1cnn(-c2cccc3ncccc23)c1C(F)(F)F [Cpd 164, N-(6-(2H-[1,2,3]triazolo[4,5-b]pyridin-2-yl)-5-chloropyridin-3-yl)-1-(quinolin-5-yl)-5-(trifluoromethyl)-1H-pyrazole-4-carboxamide]	5.78	–	6.55	–	–	–	–
Cc1cn2c(-n3ncc(C(=O)Nc4cnc(-n5nccn5)c(Cl)c4)c3C(F)(F)F)cccc2n1 [Cpd 199, N-(5-chloro-6-(2H-1,2,3-triazol-2-yl)pyridin-3-yl)-1-(2-methylimidazo[1,2-a]pyridin-5-yl)-5-(trifluoromethyl)-1H-pyrazole-4-carboxamide]	6.53	–	6.96	–	–	–	–
CC(F)(F)c1ncc(-n2ncc(C(=O)Nc3cnc(-n4nccn4)c(Cl)c3)c2C(F)(F)F)c2ccccc12 [Cpd 402, N-(5-chloro-6-(2H-1,2,3-triazol-2-yl)pyridin-3-yl)-1-(1-(1,1-difluoroethyl)isoquinolin-4-yl)-5-(trifluoromethyl)-1H-pyrazole-4-carboxamide]	–	–	6.75	6.70	7.07	–	–
O=C(Nc1cnc(-n2nccn2)c(Cl)c1)c1cnn(-c2cnc(C3CNC3)c3ccccc23)c1C(F)(F)F [Cpd 403, 1-(1-(azetidin-3-yl)isoquinolin-4-yl)-N-(5-chloro-6-(2H-1,2,3-triazol-2-yl)pyridin-3-yl)-5-(trifluoromethyl)-1H-pyrazole-4-carboxamide]	–	–	6.06	6.98	6.95	–	–
COCc1ncc(-n2ncc(C(=O)Nc3cnc(-n4nccn4)c(Cl)c3)c2C(F)(F)F)c2ccccc12 [Cpd 404, N-(5-chloro-6-(2H-1,2,3-triazol-2-yl)pyridin-3-yl)-1-(1-(methoxymethyl)isoquinolin-4-yl)-5-(trifluoromethyl)-1H-pyrazole-4-carboxamide]	–	–	7.04	6.04	5.58	–	–
O=C(Nc1cnc(-n2nccn2)c(Cl)c1)c1cnn(-c2c[n+]([O-])cc3ccccc23)c1C(F)(F)F [Cpd 406, 4-(4-((5-chloro-6-(2H-1,2,3-triazol-2-yl)pyridin-3-yl)carbamoyl)-5-(trifluoromethyl)-1H-pyrazol-1-yl)isoquinoline 2-oxide]	–	–	7.12	6.65	6.70	–	–
N#Cc1ccc2c(-n3ncc(C(=O)Nc4cnc(-n5nccn5)c(Cl)c4)c3C(F)(F)F)cccc2n1 [Cpd 413, N-(5-chloro-6-(2H-1,2,3-triazol-2-yl)pyridin-3-yl)-1-(2-cyanoquinolin-5-yl)-5-(trifluoromethyl)-1H-pyrazole-4-carboxamide]	–	–	6.54	< 5.82	6.42	–	–
N#Cc1ncc(-n2ncc(C(=O)Nc3cnc(-n4nccn4)c(Cl)c3)c2C(F)(F)F)c2ccccc12 [Cpd 414, N-(5-chloro-6-(2H-1,2,3-triazol-2-yl)pyridin-3-yl)-1-(1-cyanoisoquinolin-4-yl)-5-(trifluoromethyl)-1H-pyrazole-4-carboxamide]	–	–	7.72	< 4.82	6.02	–	–
N#Cc1ncc(-n2ncc(C(=O)Nc3cnc(-n4nccn4)c(Cl)c3)c2C(F)(F)F)c2ccsc12 [Cpd 415, N-(5-chloro-6-(2H-1,2,3-triazol-2-yl)pyridin-3-yl)-1-(7-cyanothieno[2,3-c]pyridin-4-yl)-5-(trifluoromethyl)-1H-pyrazole-4-carboxamide]	–	–	7.27	7.02	7.03	–	–
Cc1nc(-n2nccn2)c(Cl)cc1NC(=O)c1cnn(-c2cnc(C#N)c3sccc23)c1C(F)(F)F [Cpd 416, N-(5-chloro-2-methyl-6-(2H-1,2,3-triazol-2-yl)pyridin-3-yl)-1-(7-cyanothieno[2,3-c]pyridin-4-yl)-5-(trifluoromethyl)-1H-pyrazole-4-carboxamide]	–	–	5.59	< 4.82	< 4.82	–	–
Cc1nc(-n2nccn2)c(Cl)cc1NC(=O)c1cnn(-c2cnc(Cl)c3sccc23)c1C(F)(F)F [Cpd 426, N-(5-chloro-2-methyl-6-(2H-1,2,3-triazol-2-yl)pyridin-3-yl)-1-(7-chlorothieno[2,3-c]pyridin-4-yl)-5-(trifluoromethyl)-1H-pyrazole-4-carboxamide]	–	–	7.89	7.04	7.22	–	–
COc1ncc(NC(=O)c2cnn(-c3cccc4c(=O)[nH]ccc34)c2C(F)(F)F)cc1C#N [Cpd 428, N-(5-cyano-6-methoxypyridin-3-yl)-1-(1-oxo-1,2-dihydroisoquinolin-5-yl)-5-(trifluoromethyl)-1H-pyrazole-4-carboxamide]	–	–	7.96	6.26	6.62	–	–
O=C(Nc1cnc(-n2nccn2)c(Cl)c1)c1cnn(-c2cnc(N3CC(O)C3)c3sccc23)c1C(F)(F)F [Cpd 430, N-(5-chloro-6-(2H-1,2,3-triazol-2-yl)pyridin-3-yl)-1-(7-(3-hydroxyazetidin-1-yl)thieno[2,3-c]pyridin-4-yl)-5-(trifluoromethyl)-1H-pyrazole-4-carboxamide]	–	–	7.89	< 5.52	6.69	–	–
O=C(Nc1cnc(-n2nccn2)c(Cl)c1)c1cnn(-c2cnc(N3CC[C@@H](O)C3)c3sccc23)c1C(F)(F)F [Cpd 432, (R)—N-(5-chloro-6-(2H-1,2,3-triazol-2-yl)pyridin-3-yl)-1-(7-(3-hydroxypyrrolidin-1-yl)thieno[2,3-c]pyridin-4-yl)-5-(trifluoromethyl)-1H-pyrazole-4-carboxamide]	–	–	7.01	6.03	6.44	–	–
N-(5-chloro-6-(4-methyl-2H-1,2,3-triazol-2-yl)pyridin-3-yl)-1-(quinolin-5-yl)-5-(trifluoromethyl)-1H-pyrazole-4-carboxamide [Cpd 304]	–	–	7.21	–	–	5.48	5.49
